This note sets out measurements from PubChem BioAssay AID292 (DTP/NCI, 2004).

The assay deals with B6C3F1 mice, ip Sarcoma M5076, median survival T/C. In words: NCI In Vivo Anticancer Drug Screen. Data for tumor model Sarcoma M5076 (intraperitoneal) in B6C3F1 mice. As to conditions: endpoint: median survival time, higher = longer survival. A digest of the protocol: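 The readout is a ratio of survival in drug-treated animals to survival in animals given vehicle alone, taken in mice bearing a transplanted tumour line.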

The mark [1] stands for this setting: dose: 37.5 mg/kg/injection, schedule: Q04DX004 (ip), vehicle: water.
Setting [2] is: dose: 75.0 mg/kg/injection, schedule: Q04DX004 (ip), vehicle: water.
The mark [3] stands for this setting: dose: 150.0 mg/kg/injection, schedule: Q04DX004 (ip), vehicle: water.
The mark [4] stands for this setting: dose: 300.0 mg/kg/injection, schedule: Q04DX004 (ip), vehicle: water.
Where [5] appears, read: dose: 600.0 mg/kg/injection, schedule: Q04DX004 (ip), vehicle: water.
[6] abbreviates: dose: 25.0 mg/kg/injection, schedule: Q04DX004 (ip), vehicle: saline with Tween-80.
Setting [7] is: dose: 37.5 mg/kg/injection, schedule: Q04DX004 (ip), vehicle: saline with Tween-80.
[8] abbreviates: dose: 50.0 mg/kg/injection, schedule: Q04DX004 (ip), vehicle: saline with Tween-80.
The mark [9] stands for this setting: dose: 75.0 mg/kg/injection, schedule: Q04DX004 (ip), vehicle: saline with Tween-80.
Setting [10] is: dose: 100.0 mg/kg/injection, schedule: Q04DX004 (ip), vehicle: saline with Tween-80.
Setting [11] is: dose: 200.0 mg/kg/injection, schedule: Q04DX004 (ip), vehicle: saline with Tween-80.
Where [12] appears, read: dose: 50.0 mg/kg/injection, schedule: Q04DX004 (ip), vehicle: Klucel (hydroxypropylcellulose) (HPC).
The mark [13] stands for this setting: dose: 100.0 mg/kg/injection, schedule: Q04DX004 (ip), vehicle: Klucel (hydroxypropylcellulose) (HPC).
The mark [14] stands for this setting: dose: 200.0 mg/kg/injection, schedule: Q04DX004 (ip), vehicle: Klucel (hydroxypropylcellulose) (HPC).
[15] abbreviates: dose: 400.0 mg/kg/injection, schedule: Q04DX004 (ip), vehicle: Klucel (hydroxypropylcellulose) (HPC).
The mark [16] stands for this setting: dose: 800.0 mg/kg/injection, schedule: Q04DX004 (ip), vehicle: Klucel (hydroxypropylcellulose) (HPC).
Setting [17] is: dose: 25.0 mg/kg/injection, schedule: Q04DX004 (ip), vehicle: Klucel (hydroxypropylcellulose) (HPC).
Setting [18] is: dose: 12.5 mg/kg/injection, schedule: Q04DX004 (ip), vehicle: Klucel (hydroxypropylcellulose) (HPC).

Where “and” joins values, the source holds several entries; their conditions need not be identical. Equal entries are not always repeated. Inconclusive results and toxic doses are left out. Peptide text beside a SMILES is read from it. * marks the point of attachment. Trt = c1ccc(C(c2ccccc2)(c2ccccc2)*)cc1; Cbz = O=C(OCc1ccccc1)*; Bn = c1ccc(C*)cc1; βAla = NCCC(=O)O

For the compound `NC(=O)C1=NOC(C(N)=O)C1C1OC(CO)C(O)C1O` (stereo not given), the T/C under setting [1] was 100 % of control; the T/C under setting [2] is 98 % of control; the T/C under setting [3] was 103 % of control; the T/C under setting [4] is 106 % of control; the T/C under setting [5] was 100 % of control.
Take `CCc1n[nH]c(CC)c1CCCCCCOc1ccc(OC)cc1Cl`: the T/C was 106 % of control under setting [6]; 100 % of control under setting [7]; 107 % of control under setting [8]; 91 % of control under setting [9]; 97 % of control under setting [10]; 91 % of control under setting [11].
For the compound `COC(=O)C(CSC(c1ccccc1)(c1ccccc1)c1ccccc1)NC(=O)C(CSCc1ccccc1)NC(=O)CCNC(=O)OCc1ccccc1` (stereo not given) ({Cbz-βAla}-Cys(Bn)-Cys(Trt)-OMe; configuration not given here), the T/C under setting [12] is 102 % of control; the T/C under setting [13] was 97 % of control; the T/C under setting [14] was 106 % of control; the T/C under setting [15] is 89 % of control; the T/C under setting [16] is 107 % of control.
In the case of `CC(=O)OC1C(O)C(C)OC(OC2C(OC(=O)C3CCC4C(C3)OC3(CC(OC(=O)/C=C/c5ccccc5)C(C)CO3)C43CO3)OC(C)C(O)C2OC(C)=O)C1O` (stereo not given), the T/C (dose: 1.0 mg/kg/injection, schedule: Q01DX009 (ip), vehicle: saline + alcohol) was 100 % of control; the T/C (dose: 1.0 mg/kg/injection, schedule: Q04DX004 (ip), vehicle: saline + alcohol) was 107 % of control; the T/C (dose: 2.0 mg/kg/injection, schedule: Q01DX009 (ip), vehicle: saline + alcohol) was 105 % of control; the T/C (dose: 2.0 mg/kg/injection, schedule: Q04DX004 (ip), vehicle: saline + alcohol) is 112 % of control; the T/C (dose: 4.0 mg/kg/injection, schedule: Q01DX009 (ip), vehicle: saline + alcohol) is 113 % of control; the T/C (dose: 4.0 mg/kg/injection, schedule: Q04DX004 (ip), vehicle: saline + alcohol) was 116 % of control. Further, the T/C (dose: 8.0 mg/kg/injection, schedule: Q01DX009 (ip), vehicle: saline + alcohol) was 121 % of control; the T/C (dose: 12.96 mg/kg/injection, schedule: Q04DX004 (ip), vehicle: saline + alcohol) was 123 % of control; the T/C (dose: 21.6 mg/kg/injection, schedule: Q04DX004 (ip), vehicle: saline + alcohol) is 115 % of control; the T/C (dose: 36.0 mg/kg/injection, schedule: Q04DX004 (ip), vehicle: saline + alcohol) was 157 % of control; the T/C (dose: 60.0 mg/kg/injection, schedule: Q04DX004 (ip), vehicle: saline + alcohol) is 116 % of control; the T/C (dose: 100.0 mg/kg/injection, schedule: Q04DX004 (ip), vehicle: saline + alcohol) was 115 % of control.
On to `Nc1ccccc1N`, for which the T/C (dose: 12.0 mg/kg/injection, schedule: Q04DX004 (ip), vehicle: Klucel (hydroxypropylcellulose) (HPC)) was 99 % of control; the T/C under setting [17] is 98 % of control; the T/C under setting [12] is 110 % of control; the T/C under setting [13] is 98 % of control; the T/C under setting [14] is 103 % of control.
With `COc1ccc(-n2[nH]c3c(cnc4ccccc43)c2=O)cc1`, the T/C by setting is: (dose: 2.25 mg/kg/injection, schedule: Q04DX004 (ip), vehicle: saline with Tween-80) 93 % of control; (dose: 4.5 mg/kg/injection, schedule: Q04DX004 (ip), vehicle: saline with Tween-80) 95 % of control; (dose: 9.0 mg/kg/injection, schedule: Q04DX004 (ip), vehicle: saline with Tween-80) 94 % of control; (dose: 18.0 mg/kg/injection, schedule: Q04DX004 (ip), vehicle: saline with Tween-80) 89 % of control; (dose: 36.0 mg/kg/injection, schedule: Q04DX004 (ip), vehicle: saline with Tween-80) 92 % of control.
For `COc1cc(C(=O)c2cc3c(cc2C)OCO3)cc(OC)c1OC`, the T/C is 97 % of control (dose: 3.75 mg/kg/injection, schedule: Q04DX004 (ip), vehicle: Klucel (hydroxypropylcellulose) (HPC)); 109 % of control (dose: 7.5 mg/kg/injection, schedule: Q04DX004 (ip), vehicle: Klucel (hydroxypropylcellulose) (HPC)); 104 % of control (dose: 15.0 mg/kg/injection, schedule: Q04DX004 (ip), vehicle: Klucel (hydroxypropylcellulose) (HPC)); 105 % of control (dose: 30.0 mg/kg/injection, schedule: Q04DX004 (ip), vehicle: Klucel (hydroxypropylcellulose) (HPC)); 110 % of control (dose: 37.5 mg/kg/injection, schedule: Q04DX004 (ip), vehicle: Klucel (hydroxypropylcellulose) (HPC)); 100 % of control (dose: 60.0 mg/kg/injection, schedule: Q04DX004 (ip), vehicle: Klucel (hydroxypropylcellulose) (HPC)). The T/C is 108 % of control and 114 % of control (dose: 75.0 mg/kg/injection, schedule: Q04DX004 (ip), vehicle: Klucel (hydroxypropylcellulose) (HPC)); 113 % of control and 116 % of control (dose: 150.0 mg/kg/injection, schedule: Q04DX004 (ip), vehicle: Klucel (hydroxypropylcellulose) (HPC)); 107 % of control (dose: 300.0 mg/kg/injection, schedule: Q04DX004 (ip), vehicle: Klucel (hydroxypropylcellulose) (HPC)).
`O=C1C=CC2OC(c3ccccc3)C(O)C2O1` (stereo not given): the T/C (dose: 6.25 mg/kg/injection, schedule: Q04DX004 (ip), vehicle: DMSO) was 105 % of control; the T/C (dose: 12.5 mg/kg/injection, schedule: Q04DX004 (ip), vehicle: DMSO) was 107 % of control; the T/C (dose: 25.0 mg/kg/injection, schedule: Q04DX004 (ip), vehicle: DMSO) is 112 % of control; the T/C (dose: 50.0 mg/kg/injection, schedule: Q04DX004 (ip), vehicle: DMSO) was 107 % of control.
Regarding `CN1C2CCC1C(Br)C(=O)C2` (stereo not given), the T/C reads like this: (dose: 50.0 mg/kg/injection, schedule: Q04DX004 (ip), vehicle: saline) 101 % of control; (dose: 100.0 mg/kg/injection, schedule: Q04DX004 (ip), vehicle: saline) 104 % of control; (dose: 200.0 mg/kg/injection, schedule: Q04DX004 (ip), vehicle: saline) 103 % of control.
Consider `Cc1ccc(Nc2nnc(CSc3ccc(Cl)cc3)s2)c(S(=O)(=O)O)c1`, for which the T/C runs as follows: under setting [7], 99 % of control; under setting [9], 87 % of control; (dose: 150.0 mg/kg/injection, schedule: Q04DX004 (ip), vehicle: saline with Tween-80) 91 % of control.
Take `Clc1ccccc1C(Cc1c(Cl)cccc1Cl)Cn1ccnc1` (stereo not given): the T/C reads like this: (dose: 12.5 mg/kg/injection, schedule: Q04DX004 (ip), vehicle: saline with Tween-80) 100 % of control; under setting [6], 101 % of control; under setting [8], 101 % of control; under setting [10], 93 % of control.
With `CC1=C(N2CCOCC2)C(N2CCOCC2)=C(C)C(=O)C1=O`, the T/C by setting is: under setting [12], 104 % of control; under setting [13], 100 % of control; under setting [14], 100 % of control; under setting [15], 113 % of control; under setting [16], 95 % of control.
In the case of `CN1C(=O)C2CC(O)C(SC3CC4C(=O)N(C)C(=O)C4CC3O)CC2C1=O` (stereo not given), the T/C reads like this: under setting [1], 101 % of control; under setting [2], 105 % of control; under setting [3], 102 % of control; under setting [4], 97 % of control; under setting [5], 107 % of control.
On to `C=C1c2cccc(O)c2C(O)=C2C(=O)[C@]3(O)C(O)=C(C(N)=O)C(=O)[C@@H](N(C)C)[C@@H]3[C@@H](O)[C@H]12`, for which the T/C under setting [18] is 105 % of control, the T/C under setting [17] was 105 % of control, the T/C under setting [12] was 101 % of control and the T/C under setting [13] was 102 % of control.
For `Cc1c(C(=N)C(C#N)C#N)c(=N)oc2c1ccc1ccccc12`, the T/C under setting [8] is 96 % of control; the T/C under setting [10] was 96 % of control; the T/C under setting [11] is 92 % of control; the T/C (dose: 400.0 mg/kg/injection, schedule: Q04DX004 (ip), vehicle: saline with Tween-80) is 94 % of control; the T/C (dose: 800.0 mg/kg/injection, schedule: Q04DX004 (ip), vehicle: saline with Tween-80) was 93 % of control.
Turning to `N=C(N)c1ccc(N=Nc2c(O)ccc3cc(O)ccc23)cc1`, the T/C is 98 % of control and 103 % of control under setting [18]; 95 % of control and 99 % of control under setting [17]; 96 % of control and 103 % of control under setting [12]; 100 % of control and 103 % of control under setting [13]; 97 % of control and 98 % of control under setting [14].
